Source: US5178877A, “Encapsulated renin inhibitor composition” (priority 1991, dated 1993)

Key:
[1] = Oral bioavailability studies in fasted dogs; conditions: dog, in vivo
Protocol: The following compositions comprising compound I were prepared and the bioavailability of each composition was determined in fasted dogs. Dogs (beagle dogs, mixed sexes, weighing about 10 kg) were fasted for at least 12 hours before dosing. Food was returned after the last blood sample was collected (24 hours). Water was available at all times. A dose equivalent to 50 or 100 milligrams of compound I was administered by mouth to each dog, followed with either 20 or 50 ml of water, respectively, through a feeding tube. […] Blood samples of 3 ml volume were anti-coagulated with EDTA. The plasma was separated by centrifugation and frozen until analyzed. Blood plasma concentrations of compound I were determined by HPLC. Bioavailability was calculated as follows: % Bioavailability=[(AUC)oral×D/(AUC)intravenous]×100. (AUC)oral and (AUC)intravenous are the areas under the curve for the plasma concentration-time profiles following oral and intravenous administration, respectively. D is a correlation factor for the difference between intravenous administration (3 mg/kg) and oral administration (about 10 mg/kg).

[2] = system: salt depleted dogs; experiment: Blood pressure lowering in salt depleted dogs; type: in vivo, dog; conditions: after oral or intravenous administration

CC(C)C[C@H](O)[C@H](O)[C@H](CC1CCCCC1)NC(=O)[C@H](Cc1cscn1)NC(=O)[C@H](Cc1ccccc1)CS(=O)(=O)N1CCN(C)CC1 [compound I, (2S)-2-Benzyl-3-(1-methyl-piperazin-4-ylsulfonyl)propionyl-(L)-(4-Thiazolyl)Ala Amide of (2S, 3R, 4S)-2-Amino-1-cyclohexyl-3,4-dihydroxy-6-methylheptane]
times more bioavailable as soft elastic gelatin encapsulated solution compared to standard solid capsule or tablet compositions [1]: 2.1-5.2 times | blood pressure [2]: reduces blood pressure
